We go through 51 compounds from US11608341B2, “Substituted tetrahydropyrazolo[3,4-d]pyrimidines and tetrahydropyrazolo[4,3-d]pyrimidines as C5A receptor modulators” (Idorsia Pharmaceuticals Ltd., priority 2018, dated 2023).

By IC50 is commonly meant the concentration that gives 50% inhibition.

For the assay, the target named is T1, C5AR1 (Homo sapiens, UniProt P21730).
T1 construct: host or cells: CHO-K1
T1 sequence (P21730 1-350): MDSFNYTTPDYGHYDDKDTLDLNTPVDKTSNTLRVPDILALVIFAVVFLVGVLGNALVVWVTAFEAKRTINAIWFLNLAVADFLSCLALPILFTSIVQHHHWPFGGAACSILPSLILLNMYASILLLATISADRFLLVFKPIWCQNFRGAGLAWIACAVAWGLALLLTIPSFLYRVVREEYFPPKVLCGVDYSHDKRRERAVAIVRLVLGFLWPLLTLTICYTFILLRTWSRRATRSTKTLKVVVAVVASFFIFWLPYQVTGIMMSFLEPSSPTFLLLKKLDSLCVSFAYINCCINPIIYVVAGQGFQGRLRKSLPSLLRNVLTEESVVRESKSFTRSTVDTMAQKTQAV
Nature of the assay: In vitro assay: antagonism of C5a-induced beta-arrestin recruitment (PathHunter) in CHO-K1 C5AR1 beta-arrestin cell line. It counts as cell-based. The note with it: antagonistic activity, 1-10 nM C5a agonist, geometric mean where several measurements, read-out: C5aR IC50. As to the method:
5 μl Antagonist at 6-fold end concentration or DMSO control is added to assay medium and subsequently 5 μl 1-10 nM C5a agonist at 6 fold end concentration. Cells are centrifuged for 1 min at 1000 rpm and incubated for 1.5 hour in at 37° C. Plates are equilibrated at room temperature for several minutes before adding 12 μl/well Detection Reagent (PathHunter Detection Kit, DiscoverX, Cat #93-0001). Plates are centrifuged for 1 min at 1000 rpm and incubated for 45 minutes at RT before being measured on a Fluostar Optima, BMG Labtech. IC50 values are calculated from a serial dilution range of antagonist using inhouse software and given in nmol/l.
The calculated IC50 values may fluctuate depending on the daily cellular assay performance. Fluctuations of this kind are known to those skilled in the art. Average IC50 values from several measurements are given as geometric mean values.
Background: Activated receptors often draw arrestin, which recruitment assays turn into a signal.
On to `Cc1cccc(F)c1N1CCC(N2Cc3cn(CC(CO)N(C)C)nc3N(Cc3ccccc3C(F)(F)F)C2=O)CC1` (stereo not drawn) [Example 56], for which the IC50 was determined as 91 nM.
As to `COc1nccc(C)c1N1CCC(N2C(=O)N(Cc3ncccc3C(F)(F)F)c3nn(C)cc3C2C)CC1` (single isomer, unassigned) [Example 356], the IC50 was found to be 5 nM.
Consider `Cc1ccnc(F)c1N1CCC(N2Cc3cn(C)nc3N(Cc3ccccc3C(F)(F)F)C2=O)CC1` [Example 52], for which the IC50 was determined as 72 nM.
On to `CC1c2cn(C3CC3)nc2N(Cc2ccccc2C(F)(F)F)C(=O)N1C1CCN(c2c(F)cccc2Cl)CC1` (single isomer, unassigned) [Example 335], for which the IC50 worked out at 12 nM.
Then `COc1nccc(C(F)(F)F)c1N1CCC(N2C(=O)N(Cc3ccccc3C(F)(F)F)c3nn(C)cc3C2C)CC1` (single isomer, unassigned) [Example 363], with 97 nM.
Turning to `Cc1cccc(F)c1N1CCC(N2Cc3cnn(CC4CC4)c3N(Cc3ccccc3C(F)(F)F)C2=O)CC1` [Example 210], the IC50 stood at 46 nM.
For `Cn1cc2c(n1)N(Cc1ccccc1C(F)(F)F)C(=O)N(C1CCN(c3c(F)cccc3OC(F)(F)F)CC1)C2` [Example 244], the IC50 was 16 nM.
As to `Cc1cccc(F)c1N1CCC(N2Cc3cn(C4CN(C(=O)OC(C)C)C4)nc3N(Cc3ccccc3C(F)(F)F)C2=O)CC1` [Example 127], the IC50 amounted to 14 nM.
`Cn1cc2c(n1)CN(C1CCN(c3c(F)cccc3Cl)CC1)C(=O)N2Cc1ccccc1C(F)(F)F` [Example 302]: the IC50 was found to be 48 nM.
For the compound `Cc1cccc(F)c1N1CCC(N2Cc3nn(COCC[Si](C)(C)C)cc3N(Cc3ncccc3C(F)(F)F)C2=O)CC1` [Example 199], the IC50 came to 32 nM.
Consider `Cc1cccc(F)c1N1CCC(N2Cc3cn(C(C)(C)C#N)nc3N(Cc3ccccc3C(F)(F)F)C2=O)CC1` [Example 87], for which the IC50 stood at 12 nM.
In the case of `Cc1cccc(F)c1N1CCC(N2Cc3cn(C4CN(C(=O)C(C)C)C4)nc3N(Cc3ccccc3C(F)(F)F)C2=O)CC1` [Example 131], the IC50 was 100 nM.
As for `Cc1cccc(F)c1N1CCC(N2Cc3cn(CCN4CCOCC4)nc3N(Cc3ccccc3C(F)(F)F)C2=O)CC1` [Example 64], the IC50 amounted to 21 nM.
Turning to `Cc1cccc(F)c1N1CCC(N2Cc3cn(C4CN(CC(F)F)C4)nc3N(Cc3ccccc3C(F)(F)F)C2=O)CC1` [Example 106], the IC50 amounted to 24 nM.
As for `Cc1cccc(F)c1N1CCC(N2Cc3cn(CC(C)CO)nc3N(Cc3ccccc3C(F)(F)F)C2=O)CC1` (stereo not drawn) [Example 39], the IC50 worked out at 16 nM.
With `Cc1cccc(F)c1N1CCCC(N2Cc3cn(C)nc3N(Cc3ccccc3C(F)(F)F)C2=O)CC1` (single isomer, unassigned) [Example 226], the IC50 came out at 24 nM.
For the compound `COc1nccc(C(F)(F)F)c1N1CCC(N2C(=O)N(Cc3ccccc3C(F)(F)F)c3nn(C)cc3C2C)CC1` (single isomer, unassigned) [Example 362], the IC50 worked out at 9 nM.
The figure for `Cc1cccc(F)c1N1CCC(N2C(=O)N(Cc3ccccc3C(F)(F)F)c3cnn(CC(C)(F)F)c3C2C)CC1` (single isomer, unassigned) [Example 256] is 570 nM; for `Cc1cccc(F)c1N1CCC(N2Cc3c(cnn3CC3(C)CC3)N(Cc3ccccc3C(F)(F)F)C2=O)CC1` [Example 181] it is 50 nM; for `COc1nccc(C)c1N1CCC(N2C(=O)N(Cc3ccccc3C(F)(F)F)c3nn(C4CC4)cc3C2C)CC1` (single isomer, unassigned) [Example 344] it is 8 nM.
With `Cc1cccc(F)c1N1CCC(N2Cc3cn(CC(C)O)nc3N(Cc3ccccc3C(F)(F)F)C2=O)CC1` (stereo not drawn) [Example 33], the IC50 was determined as 12 nM.
Consider `Cc1cccc(F)c1N1CCC(N2Cc3nn(C)nc3N(Cc3ncccc3C(F)(F)F)C2=O)CC1` [Example 128], for which the IC50 was found to be 15 nM.
The figure for `CC(C)=Cn1cc2c(n1)N(Cc1ccccc1C(F)(F)F)C(=O)N(C1CCN(c3c(C)cccc3F)CC1)C2` [Example 153] is 40 nM.
On to `Cc1cccc(F)c1N1CCC(N2C(=O)N(Cc3ccccc3C3CC3)c3cn(CC(C)(F)F)nc3C2C)CC1` (single isomer, unassigned) [Example 277], for which the IC50 is 56 nM.
Then `COc1nccc(C)c1N1CCC(N2Cc3cn(COCC[Si](C)(C)C)nc3N(Cc3ccccc3C(F)(F)F)C2=O)CC1` [Example 196], with 11 nM; and `Cc1cccc(F)c1N1CCC(N2Cc3cn(CC(C)(C)F)nc3N(Cc3ccccc3C(F)(F)F)C2=O)CC1` [Example 168], with 6 nM.
Then `CC1c2cn(C3CC3)nc2N(Cc2ccccc2C(F)(F)F)C(=O)N1C1CCN(c2c(F)cccc2Br)CC1` (single isomer, unassigned) [Example 361], with 13 nM.
`Cc1cccc(F)c1N1CCC(N2Cc3cn(C)nc3N(Cc3nc(Cl)ccc3C(F)(F)F)C2=O)CC1` [Example 35]: the IC50 turned out to be 9 nM.
For `COc1nccc(C)c1N1CCC(N2C(=O)N(Cc3ccccc3C3CC3)c3cn(C4CC4)nc3C2C)CC1` (single isomer, unassigned) [Example 293], the IC50 was found to be 20 nM.
Then `Cc1cccc(F)c1N1CCC(N2Cc3cn(CC4CC4)nc3N(Cc3ccccc3C(F)(F)F)C2=O)CC1` [Example 165], with 8 nM; and `CC1c2nn(C3CC3)cc2N(Cc2ccccc2C(F)(F)F)C(=O)N1C1CCN(c2c(F)cccc2C(F)F)CC1` (single isomer, unassigned) [Example 329], with 18 nM.
Then `Cc1cccc(F)c1N1CCC(N2Cc3n[nH]cc3N(Cc3ncccc3C(F)(F)F)C2=O)CC1` [Example 204], with 23 nM; and `CC(C)c1ccccc1N1CCC(N2Cc3cn(C)nc3N(Cc3ccccc3C(F)(F)F)C2=O)CC1` [Example 257], with 9 nM.
`Cc1cccc(F)c1N1CCC(N2Cc3cn(C4CCN(C(=O)OC(C)(C)C)C4)nc3N(Cc3ccccc3C(F)(F)F)C2=O)CC1` (stereo not drawn) [Example 93]: the IC50 was found to be 17 nM.
As to `Cc1cccc(F)c1N1CCC(N2C(=O)N(Cc3ccccc3C(F)(F)F)c3nn(C)cc3C2C)CC1` (single isomer, unassigned) [Example 221], the IC50 is 77 nM.
Then `Cc1cccc(F)c1N1CCC(N2Cc3cn(C4CN(C(=O)OCC(C)C)C4)nc3N(Cc3ccccc3C(F)(F)F)C2=O)CC1` [Example 132], with 8 nM.
With `Cc1cccc(F)c1N1CCC(N2C(=O)N(Cc3ccccc3C3CC3)c3cn(C4CC4)nc3C2C)CC1` (single isomer, unassigned) [Example 278], the IC50 worked out at 492 nM.
Then `Cc1cccc(F)c1N1CCC(N2Cc3cn(C(C)C)nc3N(Cc3ccccc3C(F)(F)F)C2=O)CC1` [Example 161], with 7 nM; and `Cc1cccc(C)c1N1CCC(N2Cc3cn(C)nc3N(Cc3ccccc3C(F)(F)F)C2=O)C1` (single isomer, unassigned) [Example 57], with 19 nM.
Regarding `Cc1cccc(F)c1N1CCC(N2Cc3cn(C)nc3N(Cc3ncccc3C(F)(F)F)C2=O)CC1` [Example 22], the IC50 came to 10 nM.
As for `CC1c2c[nH]nc2N(Cc2ccccc2C(F)(F)F)C(=O)N1C1CCN(c2c(F)cccc2C(F)F)CC1` (single isomer, unassigned) [Example 348], the IC50 worked out at 11 nM.
On to `COc1nccc(C)c1N1CCC(N2Cc3cn(CC(C)(F)F)nc3N(Cc3ccccc3C(F)(F)F)C2=O)CC1` [Example 205], for which the half-inhibitory concentration (IC50) turned out to be 8 nM.
Regarding `Cc1cccc(F)c1N1CCC(N2Cc3cn(CCO)nc3N(Cc3ccccc3C(F)(F)F)C2=O)CC1` [Example 20], the IC50 is 12 nM.
With `Cc1cccc(F)c1N1CCC(N2Cc3nn(C)cc3N(C(C)c3ccccc3C(F)(F)F)C2=O)CC1` (single isomer, unassigned) [Example 262], the IC50 was 472 nM.
`CC1c2cn(C3CC3)nc2N(Cc2ccccc2C(F)(F)F)C(=O)N1C1CCN(c2c(F)cccc2Cl)CC1` (single isomer, unassigned) [Example 336]: the IC50 amounted to 89 nM.
As to `Cc1cccc(F)c1N1CCC(N2Cc3cn(CC(C)F)nc3N(Cc3ccccc3C(F)(F)F)C2=O)CC1` (single isomer, unassigned) [Example 185], the IC50 was 10 nM.
On to `Cc1cccc(F)c1N1CCC(N2C(=O)N(Cc3ncccc3C(F)(F)F)c3nn(C)cc3C2C)CC1` (single isomer, unassigned) [Example 355], for which the IC50 was found to be 298 nM.
Take `COc1nccc(C(F)F)c1N1CCC(N2C(=O)N(Cc3ccccc3C3CC3)c3n[nH]cc3C2C)CC1` (single isomer, unassigned) [Example 370]: the IC50 turned out to be 19 nM.
For `Cc1cccc(F)c1N1CCC(N2C(=O)N(Cc3ccccc3C(F)(F)F)c3cn(C)nc3C2C)CC1` (single isomer, unassigned) [Example 202], the IC50 worked out at 919 nM.
As to `Cc1cccc(F)c1N1CCC(N2C(=O)N(Cc3ccccc3C(F)(F)F)c3nn(C4CCCCO4)cc3C2C)CC1` (stereo not drawn) [Example 313], the IC50 was determined as 13 nM.
Regarding `CC1c2cn(C3CC3)nc2N(Cc2ccccc2C(F)(F)F)C(=O)N1C1CCN(c2c(F)cccc2C(F)F)CC1` (single isomer, unassigned) [Example 311], the IC50 was 13 nM.
